Results: patent publication US9533985B2, “Sulfonamide derivative and medicinal use thereof” (EA Pharma Co., Ltd., priority 2012, dated 2017)
pIC50: −log10 of the molar value.

Target: α4β7 integrin (Homo sapiens (Human), UniProt P13612+P26010)
Assay: MAdCAM-1/α4β7 integrin binding inhibitory activity evaluation test in the presence of serum (2)
Assay type: cell-based
Conditions: RPMI-8866 cells binding to mouse MAdCAM-1/Fc, same manner as Test (3), read-out: α4β7 Rank of activity with serum added
Description: The ability of test substances to inhibit the binding of a human B cell line, RPMI-8866, which is known to express α4β7 integrin, to MAdCAM-1 was measured.
To 96-well microtiter plates, recombinant mouse MAdCAM-1/Fc (R&D systems) solution (1 μg/mL) diluted with buffer A (carbonate buffer, pH 9.6) was added at 50 μL/well, followed by incubation at 4° C. overnight. After washing once with PBS, Block Ace (Snow Brand Milk Products Company, Limited) was added at 150 μL/well, followed by incubation at room temperature for 2 hours. After removal, washing was conducted once with PBS.
100 μL of each test substance diluted with a binding buffer (DMEM containing 40 mM HEPES, 0.2% BSA, and 4 mM MnCl2) to various concentrations and 100 μL of RPMI-8866 cells (2×10^6 cell/mL) were added to plates coated with MAdCAM-1/Fc (5×10^5 cells/well) with human serum being contained at a final concentration of 50%, followed by incubation at 30° C. for 15 minutes to 60 minutes. After the cells were bound to each well, unbound cells were removed by washing with PBS. To the plates, buffer C (PBS containing 1.5% Triton X-100) was added at 50 μL/well to lyse the bound RPMI-8866 cells. To 30 μL of the cell lysate, 30 μL of Substrate Buffer (Promega, CytoTox 96 Non-Radioactive Cytotoxicity Assay) was added, and the reaction was allowed to proceed at room temperature in a dark place for 30 minutes. To each well, 30 μL of Stop Solution (Promega, CytoTox 96 Non-Radioactive Cytotoxicity Assay) was added, and the absorbance at 490 nm was measured by using a plate reader. Here, by the obtained absorbance, the activity of the lactate dehydrogenase (LDH) dissolved into the supernatant of each well was detected. In other words, the absorbance was proportional to the number of the RPMI-8866 cells bound to MAdCAM-1 and remaining on the plate. The test was duplicated. The binding ratios of the cells at various concentrations were determined, with the absorbance of a well containing no test substance taken as 100%. Then, the concentration IC50, at which 50% binding inhibition was achieved, was calculated.
The MAdCAM-1/α4β7 integrin binding inhibitory activity in the presence of serum was measured in the same manner as in Test (3) described above. […] The VCAM-1/α4β1 integrin binding inhibitory activity evaluation test and the MAdCAM-1/α4β7 integrin binding inhibitory activity evaluation test were carried out according to the methods described in Tests (1) and (2) described above.

α4β7 integrin, sequence (P13612 34-1032): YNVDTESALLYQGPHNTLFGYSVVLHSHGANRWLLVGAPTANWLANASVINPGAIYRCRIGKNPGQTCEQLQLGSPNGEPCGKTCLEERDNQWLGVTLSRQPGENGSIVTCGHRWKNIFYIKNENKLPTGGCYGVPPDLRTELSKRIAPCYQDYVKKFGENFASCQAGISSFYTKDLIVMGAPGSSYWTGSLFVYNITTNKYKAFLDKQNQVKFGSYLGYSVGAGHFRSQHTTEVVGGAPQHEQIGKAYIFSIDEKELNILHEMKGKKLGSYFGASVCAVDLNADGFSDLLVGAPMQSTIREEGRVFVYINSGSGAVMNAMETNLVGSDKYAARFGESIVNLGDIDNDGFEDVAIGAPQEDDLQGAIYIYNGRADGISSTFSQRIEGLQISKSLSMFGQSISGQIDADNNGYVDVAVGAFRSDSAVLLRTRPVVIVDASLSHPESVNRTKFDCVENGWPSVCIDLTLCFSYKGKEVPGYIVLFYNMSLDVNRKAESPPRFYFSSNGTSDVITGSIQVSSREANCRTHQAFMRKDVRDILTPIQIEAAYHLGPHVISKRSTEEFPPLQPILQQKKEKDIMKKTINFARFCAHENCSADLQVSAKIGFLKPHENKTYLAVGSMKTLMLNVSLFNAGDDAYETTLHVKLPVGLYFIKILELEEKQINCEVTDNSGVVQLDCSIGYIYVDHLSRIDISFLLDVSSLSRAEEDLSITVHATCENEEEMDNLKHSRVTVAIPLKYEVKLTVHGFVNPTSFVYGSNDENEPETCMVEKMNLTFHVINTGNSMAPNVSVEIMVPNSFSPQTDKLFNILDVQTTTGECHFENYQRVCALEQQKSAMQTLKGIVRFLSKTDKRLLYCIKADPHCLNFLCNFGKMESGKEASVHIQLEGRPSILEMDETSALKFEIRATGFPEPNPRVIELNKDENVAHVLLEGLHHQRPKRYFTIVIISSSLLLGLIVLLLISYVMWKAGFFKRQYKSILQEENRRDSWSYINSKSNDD
α4β7 integrin, sequence (P26010 20-798): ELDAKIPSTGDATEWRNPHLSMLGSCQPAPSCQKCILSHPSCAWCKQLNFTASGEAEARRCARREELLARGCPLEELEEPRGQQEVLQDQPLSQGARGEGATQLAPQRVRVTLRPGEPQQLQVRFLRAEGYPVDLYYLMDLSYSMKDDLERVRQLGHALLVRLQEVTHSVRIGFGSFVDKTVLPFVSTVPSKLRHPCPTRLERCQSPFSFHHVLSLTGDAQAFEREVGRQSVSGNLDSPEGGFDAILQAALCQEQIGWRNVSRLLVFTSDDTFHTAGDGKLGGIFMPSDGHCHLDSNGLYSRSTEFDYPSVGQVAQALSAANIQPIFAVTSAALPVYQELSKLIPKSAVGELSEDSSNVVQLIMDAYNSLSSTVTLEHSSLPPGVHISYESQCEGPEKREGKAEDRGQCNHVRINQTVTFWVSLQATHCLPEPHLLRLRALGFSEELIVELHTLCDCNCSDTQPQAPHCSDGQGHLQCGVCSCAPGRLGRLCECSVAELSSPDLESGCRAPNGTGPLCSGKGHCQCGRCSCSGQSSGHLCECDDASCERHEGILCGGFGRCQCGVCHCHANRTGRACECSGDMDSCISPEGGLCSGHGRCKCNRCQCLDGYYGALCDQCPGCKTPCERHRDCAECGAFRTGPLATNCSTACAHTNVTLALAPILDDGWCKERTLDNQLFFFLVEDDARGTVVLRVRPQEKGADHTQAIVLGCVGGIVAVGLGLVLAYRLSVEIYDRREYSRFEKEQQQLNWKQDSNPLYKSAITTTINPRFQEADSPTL

SMILES | pIC50
Cn1c(=O)n(-c2ccc(C[C@H](NC(=O)c3cc(F)c(NS(=O)(=O)c4ccc(-c5ncccn5)cn4)cc3F)C(=O)O)nc2)c(=O)c2ccncc21 [Example 222, N-(2,5-Difluoro-4-{[(5-pyrimidin-2-ylpyridin-2-yl)sulfonyl]amino}benzoyl)-3-[5-(1-methyl-2,4-dioxo-1,4-dihydropyrido[3,4-d]pyrimidin-3(2H)-yl)pyridin-2-yl]-L-alanine] | 6.70 to 7.30
Cn1c(=O)n(-c2ccc(C[C@H](NC(=O)c3cc(F)c(NS(=O)(=O)c4ccc(-c5cnc(N6CCC6)nc5)cc4)cc3F)C(=O)O)nc2)c(=O)c2ccncc21 [Example 232, N-[4-({[4-(2-Azetidin-1-ylpyrimidin-5-yl)phenyl]sulfonyl}amino)-2,5-difluorobenzoyl]-3-[5-(1-methyl-2,4-dioxo-1,4-dihydropyrido[3,4-d]pyrimidin-3(2H)-yl)pyridin-2-yl]-L-alanine] | 6.70 to 7.30
Cn1c(=O)n(-c2ccc(C[C@H](NC(=O)c3cc(F)c(NS(=O)(=O)c4ccc(-n5cncn5)cc4)cc3F)C(=O)O)cn2)c(=O)c2ccncc21 [Example 221, N-[2,5-Difluoro-4-({[4-(1H-1,2,4-triazol-1-yl)phenyl]sulfonyl}amino)benzoyl]-3-[6-(1-methyl-2,4-dioxo-1,4-dihydropyrido[3,4-d]pyrimidin-3(2H)-yl)pyridin-3-yl]-L-alanine] | 7.30 to 8.00
CCc1ncc(-c2ccc(S(=O)(=O)Nc3cc(F)c(C(=O)N[C@@H](Cc4ccc(-n5c(=O)c6ccncc6n(C)c5=O)cn4)C(=O)O)cc3F)nc2)cn1 [Example 236, N-[4-({[5-(2-Ethylpyrimidin-5-yl)pyridin-2-yl]sulfonyl}amino)-2,5-difluorobenzoyl]-3-[5-(1-methyl-2,4-dioxo-1,4-dihydropyrido[3,4-d]pyrimidin-3(2H)-yl)pyridin-2-yl]-L-alanine] | 7.30 to 8.00
CCNC(=O)c1ccc(S(=O)(=O)Nc2cc(F)c(C(=O)N[C@@H](Cc3ccc(-n4c(=O)cc(C)n(C)c4=O)cc3)C(=O)O)c(F)c2)cc1 [Example 155, 4-(3,4-Dimethyl-2,6-dioxo-3,6-dihydropyrimidin-1(2H)-yl)-N-{4-[({4-[(ethylamino)carbonyl]phenyl}sulfonyl)amino]-2,6-difluorobenzoyl}-L-phenylalanine] | 7.30 to 8.00
Cc1cc(-c2ccc(S(=O)(=O)Nc3cc(F)c(C(=O)N[C@@H](Cc4ccc(-n5c(=O)c6ccncc6n(C)c5=O)cn4)C(=O)O)cc3F)nc2)cc(C)n1 [Example 227, N-(4-{[(2′,6′-Dimethyl-3,4′-bipyridin-6-yl)sulfonyl]amino}-2,5-difluorobenzoyl)-3-[5-(1-methyl-2,4-dioxo-1,4-dihydropyrido[3,4-d]pyrimidin-3(2H)-yl)pyridin-2-yl]-L-alanine] | 6.70 to 7.30
Cn1c(=O)n(-c2ccc(C[C@H](NC(=O)c3cc(F)c(NS(=O)(=O)c4ccc(-n5cncn5)cn4)cc3F)C(=O)O)nc2)c(=O)c2ccncc21 [Example 217, N-[2,5-Difluoro-4-({[5-(1H-1,2,4-triazol-1-yl)pyridin-2-yl]sulfonyl}amino)benzoyl]-3-[5-(1-methyl-2,4-dioxo-1,4-dihydropyrido[3,4-d]pyrimidin-3(2H)-yl)pyridin-2-yl]-L-alanine] | 7.30 to 8.00
Cn1c(=O)n(-c2ccc(C[C@H](NC(=O)c3cc(F)c(NS(=O)(=O)c4ccc(-c5cncnc5)cn4)cc3F)C(=O)O)nc2)c(=O)c2ccncc21 [Example 220, N-(2,5-Difluoro-4-{[(5-pyrimidin-5-ylpyridin-2-yl)sulfonyl]amino}benzoyl)-3-[5-(1-methyl-2,4-dioxo-1,4-dihydropyrido[3,4-d]pyrimidin-3(2H)-yl)pyridin-2-yl]-L-alanine] | 7.30 to 8.00

Other lines, results leading:

pIC50 | SMILES
7.30 to 8.00 | Cn1c(=O)n(-c2ccc(C[C@H](NC(=O)c3cc(F)c(NS(=O)(=O)c4ccc(-n5cncn5)cc4)cc3F)C(=O)O)nc2)c(=O)c2ccncc21 [Example 224, N-[2,5-Difluoro-4-({[4-(1H-1,2,4-triazol-1-yl)phenyl]sulfonyl}amino)benzoyl]-3-[5-(1-methyl-2,4-dioxo-1,4-dihydropyrido[3,4-d]pyrimidin-3(2H)-yl)pyridin-2-yl]-L-alanine]
7.30 to 8.00 | Cn1c(=O)n(-c2ccc(C[C@H](NC(=O)c3ncc(NS(=O)(=O)c4ccc(-c5ncccn5)cn4)cc3F)C(=O)O)cc2)c(=O)c2ccncc21 [Example 154, N-[(3-Fluoro-5-{[(5-pyrimidin-2-yl-pyridin-2-yl)sulfonyl]amino}pyridin-2-yl)carbonyl]-4-(1-methyl-2,4-dioxo-1,4-dihydropyrido[3,4-d]pyrimidin-3(2H)-yl)-L-phenylalanine]
7.30 to 8.00 | Cn1c(=O)n(-c2ccc(C[C@H](NC(=O)c3ncc(NS(=O)(=O)c4ccncc4)cc3F)C(=O)O)cc2)c(=O)c2ccncc21 [Example 184, N-({3-Fluoro-5-[(pyridin-4-yl-sulfonyl)amino]pyridin-2-yl}carbonyl)-4-(1-methyl-2,4-dioxo-1,4-dihydropyrido[3,4-d]pyrimidin-3(2H)-yl)-L-phenylalanine]
7.30 to 8.00 | Cn1c(=O)n(-c2ccc(C[C@H](NC(=O)c3cc(F)c(NS(=O)(=O)c4ccc(-n5ccnn5)cc4)cc3F)C(=O)O)nc2)c(=O)c2ccncc21 [Example 226, N-[2,5-Difluoro-4-({[4-(1H-1,2,3-triazol-1-yl)phenyl]sulfonyl}amino)benzoyl]-3-[5-(1-methyl-2,4-dioxo-1,4-dihydropyrido[3,4-d]pyrimidin-3(2H)-yl)pyridin-2-yl]-L-alanine]
7.30 to 8.00 | CCNC(=O)c1ccc(S(=O)(=O)Nc2cc(F)c(C(=O)N[C@@H](Cc3ccc(-n4c(=O)ccn(C)c4=O)cc3)C(=O)O)c(F)c2)cn1 [Example 164, N-{4-[({6-[(Ethylamino)carbonyl]pyridin-3-yl}sulfonyl)amino]-2,6-difluorobenzoyl}-4-(3-methyl-2,6-dioxo-3,6-dihydropyrimidin-1(2H)-yl)-L-phenylalanine]
≥ 8.00 | Cn1ccc(=O)n(-c2ccc(C[C@H](NC(=O)c3c(F)cc(NS(=O)(=O)c4ccc(C(=O)NC(C)(C)C)cc4)cc3F)C(=O)O)cc2)c1=O [Example 167, N-{4-[({4-[(tert-Butylamino)carbonyl]phenyl}sulfonyl)amino]-2,6-difluorobenzoyl}-4-(3-methyl-2,6-dioxo-3,6-dihydropyrimidin-1(2H)-yl)-L-phenylalanine]
7.30 to 8.00 | CNCc1ccc(S(=O)(=O)Nc2ccc(C(=O)N[C@@H](Cc3ccc(-n4c(=O)c5ccncc5n(C)c4=O)cn3)C(=O)O)c(F)c2)cc1 [Example 177, N-{2-Fluoro-4-[({4-[(methylamino)methyl]phenyl}sulfonyl)amino]benzoyl}-3-[5-(1-methyl-2,4-dioxo-1,4-dihydropyrido[3,4-d]pyrimidin-3(2H)-yl)pyridin-2-yl]-L-alanine]
7.30 to 8.00 | Cn1c(=O)n(-c2ccc(C[C@H](NC(=O)c3cc(F)c(NS(=O)(=O)c4ccco4)cc3F)C(=O)O)cn2)c(=O)c2ccncc21 [Example 150, N-{2,5-Difluoro-4-[(2-furylsulfonyl)amino]benzoyl}-3-[6-(1-methyl-2,4-dioxo-1,4-dihydropyrido[3,4-d]pyrimidin-3(2H)-yl)pyridin-3-yl]-L-alanine]
≥ 8.00 | COc1ccccc1S(=O)(=O)Nc1cc(F)c(C(=O)N[C@@H](Cc2ccc(-n3c(=O)c4ccncc4n(C)c3=O)cc2)C(=O)O)c(F)c1 [Example 143, N-(2,6-Difluoro-4-{[(2-methoxyphenyl)sulfonyl]amino}benzoyl)-4-(1-methyl-2,4-dioxo-1,4-dihydropyrido[3,4-d]pyrimidin-3(2H)-yl)-L-phenylalanine]
≥ 8.00 | CCc1ncc(-c2ccc(S(=O)(=O)Nc3cc(F)c(C(=O)N[C@@H](Cc4ccc(-n5c(=O)c6ccncc6n(C)c5=O)nc4)C(=O)O)cc3F)cc2)cn1 [Example 238, N-[4-({[4-(2-Ethylpyrimidin-5-yl)phenyl]sulfonyl}amino)-2,5-difluorobenzoyl]-3-[6-(1-methyl-2,4-dioxo-1,4-dihydropyrido[3,4-d]pyrimidin-3(2H)-yl)pyridin-3-yl]-L-alanine]
≥ 8.00 | Cc1cc(C(=O)NC(C)(C)C)ccc1S(=O)(=O)Nc1cc(F)c(C(=O)N[C@@H](Cc2ccc(-n3c(=O)ccn(C)c3=O)cc2)C(=O)O)c(F)c1 [Example 158, N-{4-[({4-[(tert-Butylamino)carbonyl]-2-methylphenyl}sulfonyl)amino]-2,6-difluorobenzoyl}-4-(3-methyl-2,6-dioxo-3,6-dihydropyrimidin-1(2H)-yl)-L-phenylalanine]
